According to patent publication US20240228434A1, “PRODRUGS OF KV7 CHANNEL OPENERS” (Xyzagen, Inc., priority 2021, published 2024):

Columns and labels:
[1] = Rat PK at equimolar dose to Ezogabine (20 mg/kg) in 0.5% methylcellulose; conditions: for Exposure of ezogabine (dose normalized AUC) compared with ezogabine itself: rats, equimolar dose to Ezogabine 20 mg/kg
Method: (§1) Blood samples were collected at the same time points over 24 hours to generate a concentration time profile. Two male rats were dosed per group. Plasma samples were analyzed by LC/MS/MS and the resulting concentration time profiles and PK parameters are provided.
as §1, §1

MES induced seizures [2] = assay: Mouse maximal electroshock (MES) assay of Compound 29, oral; assay type: in vivo, CF-1 mouse; conditions: oral 30 mg/kg; 0.25, 0.5 and 1 h
Text: (§2) Each male CF-1 mouse provided one data point in the MES assay and one data point in the concentration analysis. There were 8 mice per time point.

[3] = Plasma and brain concentration after oral Compound 29; conditions: oral 30 mg/kg Compound 29, 0.25, 0.5 and 1 h
Text: as §2

[4] = Acid and organic solution stability, HPLC-UV 250 nm; conditions: 5 mg/mL; for Degradation / conversion to ezogabine in solution (summary): up to 3 weeks
Method: An HPLC-UV Vis method was developed using 0.1% Formic acid in water as mobile phase A and 0.1% Formic acid in acetonitrile as mobile Phase B. A gradient method was developed ramping from 10% A to 90% B over 8 minutes and then returning to 10% A at 8.5 minutes on a 4.6×50 mm Zorbax C-18 column. Injections of 10 uL of stability solutions were injected for analyte detection.
[…] Aliquots were collected at serial time points and then diluted to a nominal concentration of 100 ug/mL for injection to the HPLC and 250 nm monitored by the diode array detector. Data at approximately 10 days is presented.
Aliquots were collected at serial time points and then diluted to a nominal concentration of 100 ug/mL for injection to the HPLC and 250 nm monitored by the diode array detector.
(§3) It was also evaluated at 2 N HCl at 37° C. Aliquots were collected at serial time points and then diluted to a nominal concentration of 100 ug/mL for injection to the HPLC and 250 nm monitored by the diode array detector.
as §3, §3, §3

MES induced seizures [5] = assay: Maximal electroshock assay of Compound 28, IP; assay type: in vivo, CF-1 mice; conditions: for Animals protected from MES induced seizures: 30 minutes after administration
[6] = Drug concentration in plasma and brain after Compound 28 IP; conditions: CF-1 mice, 30 minutes
[7] = male jugular vein cannulated rats, dose equimolar to Ezogabine 20 mg/kg, 0.5% methylcellulose in water, 24 hours, analyte the dosed prodrug
[8] = male jugular vein cannulated rats, dose equimolar to Ezogabine 20 mg/kg, 0.5% methylcellulose in water, analyte the dosed prodrug

Compound `CCNC(=O)CC[C@H](N)C(=O)Nc1cc(NCc2ccc(F)cc2)ccc1NC(=O)OCC.Cl` [Compound 29] has an AUClast [1, 7] of 6110 ng·h/mL, a Cmax/D ([1]; male jugular vein cannulated rats, dose equimolar to Ezogabine 20 mg/kg, 0.5% methylcellulose in water, analyte Ezogabine) of 23.3 ng/mL/mg/kg and a Cmax [1, 8] of 883 ng/mL. The Cmax/D [1, 8] was 44.2 ng/mL/mg/kg, the Tmax [1, 8] was 9.6 min and the “Exposure of ezogabine (dose normalized AUC) compared with ezogabine itself” value [1] was “similar”. The “Pharmacological response in MES over time” value (MES induced seizures [2]) was “reduced in tandem to the decrease in brain concentrations”, the Exposure of ezogabine [3] was “very high in plasma and was present in brain” and the “Degradation / conversion to ezogabine in solution (summary)” value [4] was “degradation under acidic conditions and also conversion to ezogabine”. The “Ezogabine Area” value ([4]; 0.1N HCl, room temp., normal light, 441 h) was 0 mAU, the “Ezogabine Area” value ([4]; 1N HCl, room temp., normal light, 441 h) was 1241 mAU and the “Ezogabine Area” value ([4]; 2N HCl 37 C., 441 h) was 1755 mAU. The “Ezogabine Area” value ([4]; 2N HCl, room temp., normal light, 441 h) was 1659 mAU and the “Ezogabine Area” value ([4]; Methanol, room temp., normal light, 441 h) was 0 mAU.

With `CCOC(=O)Nc1ccc(NCc2ccc(F)cc2)cc1NC(=O)C[C@@H](CN)CC(C)C` [Compound 28] the AUClast/D [1, 7] was 83.0 ng·h/mL/mg/kg, the Cmax/D [1, 8] was 9.31 ng/mL/mg/kg and the “Exposure of ezogabine (dose normalized AUC) compared with ezogabine itself” value [1] was “lower exposure”. The “Animals protected from MES induced seizures” value (MES induced seizures [5]; IP 12 mg/kg) was 1 of 9, the “Animals protected from MES induced seizures” value (MES induced seizures [5]; IP 24 mg/kg) was 3 of 9 and the “Protection against MES induced seizures, dose response” value (MES induced seizures [5]; IP 1.5, 3, 6, 12 and 24 mg/kg) was “None of the doses showed complete protection”. For the same compound, the “Degradation / conversion to ezogabine in solution (summary)” value [4] was “degradation to ezogabine with increasing strength of the acidic solution”, the “Ezogabine Area” value ([4]; 0.1N HCl, room temp., normal light, 440 h) was 0 mAU and the “Ezogabine Area” value ([4]; 1N HCl, room temp., normal light, 440 h) was 568 mAU. For the same compound, the “Ezogabine Area” value ([4]; 2N HCl 37 C., 440 h) was 3593 mAU, the “Ezogabine Area” value ([4]; 2N HCl, room temp., normal light, 440 h) was 1462 mAU and the “Appearance of the stability solution” value ([4]; 11 days) was “clear and colorless through Day 11”. The “% Remaining” value ([4]; 440 h) was 92.0%, the “Ezogabine Area” value ([4]; Acetonitrile, room temp., normal light, 440 h) was 248 mAU and the “Ezogabine Area” value ([4]; Methanol, room temp., normal light, 440 h) was 0 mAU. For the same compound, the “Concentration of the prodrug compared with ezogabine” value [6] was “present at higher concentrations than ezogabine”.
